# Publication PMC9959553, “Promising Antifungal Molecules against Mucormycosis Agents Identified from Pandemic Response Box®: In Vitro and In Silico Analyses” (Journal of Fungi, 2023)
# Test system: R. oryzae UCP1295
# Test: Screening of the Pandemic Response Box library at 5 µM
# Type: cell-based, Rhizopus oryzae
# Details: 48 h, Table S1, mean of the four values
# Procedure: Rhizopus oryzae UCP is the most prevalent Mucorales species in human infections and was used as a reference strain to screen the Pandemic Response Box® library. Screening was performed according to Rollin-Pinheiro and colleagues. Each compound was diluted in RPMI 1640 medium (Sigma Chemical Co., St. Louis, MO, USA), supplemented with 2% glucose and buffered with 3-(N-morpholino) propanesulfonic acid (MOPS) (Sigma Chemical Co., St. Louis, MO, USA) (0.165 mol/L, pH 7.2, from here on referred to as ‘supplemented RPMI’) to reach 5 μM in 96-well microtiter plates. Posaconazole (5 μM) and supplemented RPMI containing 1% DMSO were used as controls (both from Sigma Chemical Co., St. Louis, MO, USA). Conidia (2 × 10^5/mL) were added and incubated for 48 h at 37 °C in a 5% CO2 atmosphere. […] An inhibition of at least 60% was defined as the cut-off to select the promising drugs with antifungal activity against the Rhizopus species.
row,Compound,"% of growth inhibition, Mean"
1,Cl.Cl.NCCCc1ccccc1C(=O)Nc1ncc([N+](=O)O)s1 [MMV1579786],-16.7%
2,O[C@@](Cn1cnnn1)(c1ccc(F)cc1F)C(F)(F)c1ccc(-c2ccc(OCC(F)(F)F)cc2)cn1 [MMV1634386],-15.2%
3,c1ccc(Cn2c(-c3ccccn3)nc3ccccc32)cc1 [MMV1578886],-11.3%
4,Cc1ncc([N+](=O)[O-])n1CC(O)CN1CCOCC1 (centres unmarked) [MMV1613562],-0.4%
5,CCc1cc(O)c(Oc2cccnc2N)cc1F [MMV1580854],-36.7%
6,CC(Oc1ccc(Cl)cc1Cl)C(=O)NCc1ccc2c(c1)OCO2 (centres unmarked) [MMV1578925],-25.4%
7,[N-]=[N+]=N[C@H]1C[C@H](n2ccc(=O)[nH]c2=O)O[C@@H]1CO [MMV1593520],4.5%
8,O=C(NC(=O)N1CCCc2ccccc21)c1cccc(Cl)c1 [MMV1782351],-17.9%
9,COc1ccc2c(c1OC)C(=O)OC2C1c2c(cc3c(c2OC)OCO3)CCN1C (centres unmarked) [MMV002780],-7.9%
10,CC(C)C(=O)N[C@H]1[C@H]([C@H](O)[C@H](O)CO)OC(C(=O)O)=C[C@@H]1N=[N+]=[N-] [MMV1782111],-12.9%
11,CC1(C)C[C@H]1C(=O)N/C(=C\CCCCSC[C@@H](N)C(=O)O)C(=O)O.[Na+] [MMV1613559],-16.6%
12,CN1C(=O)C(c2ccccc2)C(=O)N(c2ccccc2)c2cc(C(F)(F)F)ccc21 (centres unmarked) [MMV1782208],-7.5%
13,C[N+]1(C)CCCC(OC(=O)C(O)(c2ccccc2)c2ccccc2)C1 (centres unmarked) [MMV002676],-16.3%
14,CCc1cc(Cc2cnc(N)nc2N)cc2c1N(C)CCC2C (centres unmarked) [MMV1582490],-3.0%
15,CCOC(=O)/C=C/[C@H](C[C@@H]1CCNC1=O)NC(=O)[C@H](CC)n1cccc(NC(=O)c2cc(C)on2)c1=O [MMV1782112],-11.8%
16,O=C(NCCN1CCCCC1)c1cccc(C(F)(F)F)c1 [MMV1633964],-2.0%
17,COc1ccc(CNC(=O)C2CCN(C(C)c3cccc4ccccc34)CC2)cc1 (centres unmarked) [MMV1634397],-12.7%
18,Cc1nc(-c2ccc(C3N(C)c4ccc(F)cc4C(=O)N3c3ccccc3)s2)cs1 (centres unmarked) [MMV1582492],-6.7%
19,O=C(CP(=O)(O)O)NCCc1cccc(Oc2ccccc2)c1 [MMV1579787],-30.1%
20,NC(=O)c1[nH]c2ccc(S(N)(=O)=O)cc2c1-c1ccccc1 [MMV1581556],-42.8%
21,COc1ccc(COc2cc3oc(=O)c4cc(C(C)O)ccc4c3cc2OC)cc1 (centres unmarked) [MMV1580799],-1.6%
22,O=C(Nc1cccc(C2=NCCN2)c1)c1ccc(-c2ccc(C(=O)Nc3cccc(C4=NCCN4)c3)cc2)cc1 [MMV1580853],-34.0%
23,C[C@@H](NC(=O)c1cccc(-c2cnc(-c3cc4ccccc4cn3)[nH]2)c1)c1ccc(F)cc1 [MMV1782211],32.8%
24,O=C(O)COc1cccc2c1CC[C@](O)(COC(=O)N(c1ccccc1)c1ccccc1)C2 [MMV1782352],-13.6%

row,Compound,"% of growth inhibition, Mean"
1,Cc1cc(-c2ccccc2)c(C(=O)C(=O)Nc2ccc(N3CCN(c4ncc(F)cn4)CC3)cc2)n1C [MMV1782354],-38.2%
2,CC(C)(C)OC(=O)NCc1ccc(C(=O)N[C@H]2CCOC2=O)cc1 [MMV1581547],-3.1%
3,CC(C)(C)c1ccc(Oc2ccc(N)cc2)cc1 [MMV1174026],-12.8%
4,C=C(C)[C@@H]1CC[C@]2(C(=O)O)CC[C@]3(C)[C@H](CC[C@@H]4[C@@]5(C)CC[C@H](O)C(C)(C)[C@@H]5CC[C@]43C)[C@@H]12 [MMV638198],43.5%
5,c1cc(CN2CCCNCCNCCCNCC2)ccc1CN1CCCNCCNCCCNCC1 [MMV1580502],52.2%
6,CCCCCCCCC(CP(=O)(O)C(C)N)C(=O)O (centres unmarked) [MMV1582487],-11.5%
7,Nc1nnc(-c2ccc(Cl)cc2)s1 [MMV046261],-8.7%
8,Cc1ccc(Oc2ccccc2-c2csc(N=C3NCCCN3)n2)c(C)c1 [MMV1634493],-30.7%
9,Nc1nnnn1CCOc1c2[nH]c3ccc(Cl)cc3c2cc2c1[nH]c1ccc(Cl)cc12 [MMV1633966],-30.2%
10,NNC(=O)c1ccncc1 [MMV002169],-5.4%
11,CO/N=C(\C(=O)N[C@@H]1C(=O)N2C(C(=O)OCOC(=O)C(C)(C)C)=C(/C=C\c3scnc3C)CS[C@H]12)c1csc(N)n1 [MMV002560],-6.4%
12,CCCCCOc1ccc(/C=C2\Oc3c(ccc(O)c3O)C2=O)c(O)c1 [MMV1580851],-13.7%
13,CC(C)Oc1cccc(NC(=O)c2ccccc2C(F)(F)F)c1 [MMV1009286],-12.9%
14,C[C@@H](c1nc(-c2ccc(C#N)cc2)cs1)[C@](O)(Cn1cncn1)c1ccc(F)cc1F [MMV1634362],-36.2%
15,Cc1nc(N(C)C(=O)Cc2ccc(-c3ccccn3)cc2)sc1S(N)(=O)=O [MMV1580486],-4.4%
16,Oc1c(C(Nc2ccccn2)c2ccccc2)ccc2cccnc12 (centres unmarked) [MMV565773],-30.1%
17,CCNC(=O)Nc1cc2c(-c3ccnc(C)c3)ccc(CNC(=O)OC)c2cn1 [MMV1634390],-15.7%
18,CC(C)(C)NC(=O)[C@@H]1C[C@@H]2CCCC[C@@H]2CN1C[C@@H](O)[C@H](Cc1ccccc1)NC(=O)[C@H](CC(N)=O)NC(=O)c1ccc2ccccc2n1 [MMV637879],25.0%
19,Cc1onc(-c2ccccc2Cl)c1C(=O)N[C@@H]1C(=O)N2[C@@H]1SC(C)(C)[C@@H]2C(=O)O [MMV002740],-27.0%
20,Clc1cc(Cl)c2c(c1)CCc1ccccc1C2n1ccnc1 (centres unmarked) [MMV1634492],-30.6%
21,CC(C)(C)NC(=O)[C@@H]1CN(Cc2cnc3occc3c2)CCN1C[C@@H](O)C[C@@H](Cc1ccccc1)C(=O)N[C@H]1c2ccccc2C[C@H]1O [MMV1782353],-11.2%
22,O=S(=O)(NCB(O)O)c1cc2c(Cl)ccc(Cl)c2s1 [MMV1580841],-42.4%
23,CC(C)Cn1c(=O)n(C)c(=O)c2c(-c3cncn3C)n(Cc3cccc4ccccc34)nc21 [MMV1581559],-18.9%
24,COc1cc(NC(=O)CN2C(=O)NC(c3ccccc3)(c3ccccc3)C2=O)cc(OC)c1 [MMV1578572],-14.6%

row,Compound,"% of growth inhibition, Mean"
1,CCc1oc2ccccc2c1C(=O)c1ccc(O)cc1 [MMV1578558],-39.8%
2,COc1cc(C(C(=O)NC2CCCCC2)N(C(=O)Cc2c[nH]c3ccccc23)c2ccc(C(C)C)cc2)cc(OC)c1OC (centres unmarked) [MMV1593544],-2.6%
3,CC1(C)Cc2c(C#N)c(SCCc3ccccc3)nc(N3CCOCC3)c2CO1 [MMV1549626],-26.0%
4,CC[C@@H]1C(=O)OC[C@@H]1Cc1cncn1C.Cl [MMV002516],-16.1%
5,Nc1nc(=O)[nH]cc1F [MMV004508],-32.5%
6,CC[C@H](NC(=O)[C@H](C)NC)C(=O)N1C[C@@H](O)C[C@H]1Cc1c(-c2[nH]c3cc(F)ccc3c2C[C@@H]2C[C@H](O)CN2C(=O)[C@H](CC)NC(=O)[C@H](C)NC)[nH]c2cc(F)ccc12 [MMV1557856],3.0%
7,Nc1nc(NC2Cc3ccc(F)cc3C2)nc(N2CCCCC2)n1 (centres unmarked) [MMV1580839],-3.1%
8,CC[C@@]1(O)C(=O)OCc2c1cc1n(c2=O)Cc2cc3c(CN(C)C)c(O)ccc3nc2-1.Cl [MMV1633678],-10.2%
9,CCN(CC)CCn1c(=N)n(CC(O)COc2ccc(Cl)cc2Cl)c2ccccc21 (centres unmarked) [MMV000725],-27.5%
10,C(=C\c1nc2ccccc2[nH]1)/c1ccc2c(c1)OCO2 [MMV1582495],-6.2%
11,CC(C)(C)c1cc(CCC(=O)N2CCC2)cc(C(C)(C)C)c1O [MMV1229204],-11.2%
12,CNc1nc(=O)[nH]cc1F [MMV1782388],-27.5%
13,N#CCN1C(=O)COc2cc(F)c(N3C(=O)c4ccccc4C3=O)cc21 [MMV1579785],-18.3%
14,O=C(Nc1[nH]c(=O)ncc1F)c1ccccc1 [MMV1782225],-27.6%
15,CC(=N)N1CC[C@H](SC2=C(C(=O)O)N3C(=O)[C@@H]([C@@H](C)O)[C@H]3C2)C1 [MMV1582382],-12.0%
16,C[C@H](Cn1cnc2c(N)ncnc21)OCP(=O)(O)O [MMV1580478],-19.5%
17,Fc1ccc(-n2cc(Cn3c(-c4cccc(F)c4)nc4ccccc43)nn2)cc1 [MMV1580850],-26.0%
18,C[C@H]1CC[C@]2(NC1)O[C@H]1C[C@H]3[C@@H]4CC[C@H]5C[C@@H](O)CC[C@]5(C)[C@H]4CC[C@]3(C)[C@H]1[C@@H]2C.Cl [MMV003069],-12.1%
19,CC#C[C@]1(O)CC[C@H]2[C@@H]3CCC4=CC(=O)CCC4=C3[C@@H](c3ccc(N(C)C)cc3)C[C@@]21C [MMV003297],-3.7%
20,Cc1cc(CCCOc2c(C)cc(-c3noc(C(F)(F)F)n3)cc2C)on1 [MMV690467],-3.4%
21,CCc1cc(CCC(=O)Nc2ccccc2O)c(=O)[nH]c1C [MMV1782106],-2.0%
22,O=C(Nc1ccccc1C(=O)O)c1cccc(Oc2ccccc2)c1 [MMV1579784],-27.4%
23,O=C(Nc1nnc(-c2ccc(Cl)cc2)o1)c1ccc(F)cc1 [MMV1782140],-4.1%
